Starred links: 1 amine or outer side, 2 acyl side, 3 side chain; linkers in the order of their positions; H or OH if unused. Non-standard residues stand in square brackets, D forms with d. No end group written: not given here. *: point of attachment. cholesteryl‑oxycarbonylmethyl = CC(C)CCC[C@@H](C)[C@H]1CC[C@H]2[C@@H]3CC=C4C[C@@H](OC(=O)C*)CC[C@]4(C)[C@H]3CC[C@]12C; Suc = O=C(CCC(=O)[*:2])[*:1]; hCys = N[C@@H](CCS)C(=O)O; Nva = CCC[C@H](N)C(=O)O; Tba = not defined here
Key:
[1] = biological target: gp41 of HIV-1 strain HXB2D with mutation Q40H (HIV-1 strain HXB2D) (UniProt P04578)
[2] = biological target: gp41 of HIV-1 wild type strain IIIB (HIV-1 strain IIIB)
[3] = test system: HIV wild type virus strain IIIB; assay: Standard Anti-Viral-Experiment (AVE), HIV-1 replication assay in MT4-LTR-EGFP cells, wild type IIIB; format: cell-based; conditions: 3 days, EGFP signal
In short: (§1)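 MT4-LTR-EGFP cells infected with HIV-1 IIIB, HXB2D or HXB2D gp41 mutants V38A/Q40H alongside serial 4-fold compound dilutions, 3 days at 37° C. EGFP read by laser-scanning microscopy; EC50 by linear interpolation against log concentration. Mutant results given as fold change in EC50 versus wild-type HXB2D.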

HIV-IIIB + 50% HS = assay: Standard AVE (50% Human Serum), HIV-1 replication assay in MT4-LTR-EGFP cells; format: cell-based; conditions: fold change vs EC50 in the assay without human serum
In short: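 MT4-LTR-EGFP cells infected with HIV-1 alongside 4-fold serial compound dilutions in 50% human serum, 3 days at 37 °C. EGFP read by laser-scanning microscopy; EC50 by linear interpolation against log concentration, reported as fold change versus EC50 without serum.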

[4] = test system: HIV mutant virus strain HXB2D with mutation V38A in the gp41 gene; assay: Standard AVE, HXB2D site directed mutant V38A; format: cell-based, HIV-1; conditions: fold change vs wild type strain HXB2D
Text: • Standard Anti-Viral-Experiment “AVE” (wild type HIV strain IIIB+HIV strain HXB2D side directed mutants V38A and Q40H)
The HIV-1 replication assay measures virus replication (HIV wild type virus strain 111B or HXB2D, or a HIV mutant virus strain HXB2D with mutation V38A or Q40H in the gp41 gene) as an induction of enhanced green fluorescent protein (EGFP) expression. The indicator MT4-LTR-EGFP cells contain an EGFP gene under the control of the HIV-1 LTR promoter sequence. Successful HIV-1 infection results in viral Tat protein expression and subsequent induction of EGFP expression. Compounds/peptides inhibiting HIV-1 infection are expected to reduce EGFP expression as compared to the untreated HIV-infected control.
Serial 4-fold dilutions of test compounds/peptides were mixed with HIV-1 (IIIB, HXB2D, or a HXB2D mutant virus (V38A or Q40H)) and MT4-LTR-EGFP cells and incubated at 37° C. After 3 days, the wells were examined for EGFP expression using an argon laser-scanning microscope. The effective compound/peptide concentration inhibiting 50% of the virus-induced EGFP signal (EC50) was determined by linear interpolation of the EGFP signal vs. logarithm of the compound concentration; (T20, C34 and Sifuvirtide were added as reference compounds). For the V38A and Q40H mutant viruses, results were reported as a fold change in EC50, as compared with a drug-susceptible wild type strain HXB2D, which forms the backbone of the mutant virus. • Standard AVE (50% Human Serum)

[5] = test system: HIV mutant virus strain HXB2D with mutation Q40H in the gp41 gene; assay: Standard AVE, HXB2D site directed mutant Q40H; format: cell-based, HIV-1; conditions: fold change vs wild type strain HXB2D
In short: as §1

Molecule	fold change in EC50, HIV-HXB2D Q40H mutant [1]	EC50 of HIV-IIIB replication (EGFP) [2]	fold change in EC50, HIV-IIIB + 50% HS [2]	EC50 [3]	HIV-IIIB + 50% HS (Fold change in EC50) (HIV-IIIB + 50% HS)	HIV-HXB2D V38A mutant (fold change in EC50) [4]	HIV-HXB2D Q40H mutant (fold change in EC50) [5]
Sifuvirtide-PBD (peptide)	> 3 fold	36400 nM	0.8 fold	–	–	–	–
C34 (peptide)	8.8 fold	266 nM	0.8 fold	–	–	–	–
Ac-A[hCys]YAA[hCys]IEALIRKAQEQQEKNEAALR-NH2 (cysteine pairing not given here) [Peptide 80]	–	–	–	2 nM	2	40	375
Ac-A[hCys]YAA[hCys]IEALIRAAQEQQEKNEAALR-NH2 (cysteine pairing not given here) [Peptide 77]	–	–	–	6 nM	3	39	304
Suc-CYLACIEELIRKAGEQQEKNEAAL-Tba-NH2 (Suc-CYLACIEELIRKAGEQQEKNEAAL-{Tba-NH2}; cysteine pairing not given here; reading uncertain; also: printed as Suc-CYLACIEELIRKAGEQQEKNEAAL-Tba-NH2) [Peptide 25]	–	–	–	0.6 nM	3	31	352
Sifuvirtide (peptide)	2 fold	2 nM	1 fold	–	–	–	–
Suc-ACYLACIEALIRA[Nva]QEQQEKNEAALR-NH2 (cysteine pairing not given here) [Peptide 46]	–	–	–	1 nM	2	6	42
Ac-A[hCys]YAA[hCys]IEALIRKAQEQQEKNEAALR-NH2 (cysteine pairing not given here) [Peptide 79]	–	–	–	5 nM	2	27	284
Suc-CYLACIEELIRKAQEQQEKNEAAL-Tba-NH2 [24] (Suc-CYLACIEELIRKAQEQQEKNEAAL-{Tba-NH2}; cysteine pairing not given here; reading uncertain; also: printed as Suc-CYLACIEELIRKAQEQQEKNEAAL-Tba-NH2) [Peptide 24]	–	–	–	1 nM	1	26	321
Suc-CYLACIEELIRKAQEQQEKNEAAL-Tba-NH2 [23] (Suc-CYLACIEELIRKAQEQQEKNEAAL-{Tba-NH2}; cysteine pairing not given here; reading uncertain; also: printed as Suc-CYLACIEELIRKAQEQQEKNEAAL-Tba-NH2) [Peptide 23]	–	–	–	1 nM	0.6	45	807
Ac-ACYAACIEALIRAAQEQQEKNEAALRGSGC(cholesteryl-oxycarbonylmethyl)-NH2 [81] (Ac-ACYAACIEALIRAAQEQQEKNEAALRGSGC(cholesteryl‑oxycarbonylmethyl)-NH2; cysteine pairing not given here) [Peptide 81]	–	–	–	0.3 nM	4	4	24
Suc-ACYLACIEALIRA-Abu-QEQQEKNEAALR-NH2 [Peptide 47]	–	–	–	1 nM	2	17	261
Ac-ACY-Cha-ACIEALIRAAQEQQEKNEAALR-NH2 [Peptide 59]	–	–	–	3 nM	3	18	44
Suc-ANYLALIEAL-Tba-RAAQEQQEKNEAALR-NH2 (reading uncertain; also: chains 1 and 2 are one peptide joined through Tba residue, printed as Suc-ANYLALIEAL-Tba-RAAQEQQEKNEAALR-NH2) [Peptide 11]	–	–	–	1 nM	0.8	26	368
T20 (peptide)	49.7 fold	17 nM	3.9 fold	–	–	–	–
Ac-NNYTSLIHSLIEESQNQQEKNEQELL-NH2 [C34-PBD*]	–	> 49200 nM	–	–	–	–	–

Reference: patent US20140357577A1, “HIV Membrane Fusion Inhibitors” (priority 2011, published 2014)
